In patent US20240358818A1, “ANTIBODY-INDUCING POLYPEPTIDE AND VACCINE” (priority 2021, published 2024):
No end group written: not given here.

Legend:
S2 protein of SARS-COV-2 = S2 protein of SARS-COV-2 (Severe acute respiratory syndrome coronavirus 2, UniProt P0DTC2)
[1] = test system: IgG in serum samples of patients recovered from SARS-COV-2 infection; type: binding, human
[2] = target: RBD protein of SARS-COV-2 (Severe acute respiratory syndrome coronavirus 2, UniProt P0DTC2)
[3] = target: binding between ACE2 and RBD (Severe acute respiratory syndrome coronavirus 2, UniProt P0DTC2); details: for inhibition of the binding between ACE2 and RBD: serum of mice sensitized with conjugate, FIG. 2, FIG. 3(A)

Sequence	S2 recognizing ability of mouse serum IgG (S2 protein of SARS-COV-2)	reaction with antibodies in serum samples obtained from the 5 patients [1]	RBD recognition ability of mouse serum IgG [2]	further results
ASVVNIQKEIDRLNEVAKNL [#114]	high	strongly react		
DRLNEVAKNLNESLIDLQE (also: conjugate) [#115]	high	strongly react		
ELDSFKEELDKYFKNHTS (also: conjugate) [#111]	high	strongly react		
EVRQIAPGQTGKIADYNYKLPD [#8]			high	
NATRFASVYAWNRKRISNC [#3]			high	inhibition of the binding between ACE2 and RBD [3]: inhibit the binding between ACE2 and RBD
SNLKPFERDISTEIYQAGSTPC [#11]			high	inhibitory ability on ACE2-RBD binding compared with positive control ([3]; mouse serum diluted to 100-fold, positive control mouse anti-RBD polyclonal antibody, FIG. 2): equivalent to that of the positive control; inhibitory effects on ACE2-RBD binding compared with serum of recovered patients ([3]; versus the 4 patients other than patient A, FIG. 3(B)): substantially equivalent
YGVSPTKLNDLCF (also: conjugate) [#5]			without the RBD protein recognizing ability	inhibition of the binding between ACE2 and RBD [3]: substantially no inhibitory activity was observed
